According to paper PMC8548588, “Cesium tolerance is enhanced by a chemical which binds to BETA-GLUCOSIDASE 23 in Arabidopsis thaliana” (Scientific Reports, 2021):

Target: T1, AtβGLU23 (BETA-GLUCOSIDASE 23, PYK10) (Arabidopsis thaliana, UniProt Q9SR37)
T1 construct: gene BGLU23; native protein from total protein extract of 11-day-old seedlings
T1 sequence (Q9SR37 25-524): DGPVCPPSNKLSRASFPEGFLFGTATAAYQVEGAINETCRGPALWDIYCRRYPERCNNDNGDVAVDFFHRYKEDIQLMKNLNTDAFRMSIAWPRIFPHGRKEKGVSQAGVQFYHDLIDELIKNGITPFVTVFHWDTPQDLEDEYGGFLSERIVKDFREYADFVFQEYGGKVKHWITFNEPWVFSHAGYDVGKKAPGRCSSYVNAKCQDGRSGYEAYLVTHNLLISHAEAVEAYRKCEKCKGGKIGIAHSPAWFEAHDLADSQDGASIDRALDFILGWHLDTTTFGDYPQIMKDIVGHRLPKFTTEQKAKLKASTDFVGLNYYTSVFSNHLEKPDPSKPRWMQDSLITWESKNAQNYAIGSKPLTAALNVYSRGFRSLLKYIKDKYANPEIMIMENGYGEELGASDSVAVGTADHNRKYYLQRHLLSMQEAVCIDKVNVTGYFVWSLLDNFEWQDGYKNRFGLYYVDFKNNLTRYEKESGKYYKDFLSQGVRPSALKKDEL
Assay: pull-down from plant extract with photo-cross-linked compound beads, SDS-PAGE, LC-MS/MS
Assay type: binding
Conditions: compound immobilised on photoaffinity-linker-coated agarose beads; 10 mM CsCl, pH 7.6, 4 °C, 18-24 h; control beads without compound

SMILES: Cc1cc(C(=O)Cn2cc(C(F)(F)F)ccc2=O)c(C)n1C(C)C [CsToAcE1, 1-[2-[2,5-Dimethyl-1-(propan-2-yl)-1H-pyrrol-3-yl]-2-oxoethyl]-5-(trifluoromethyl)-1,2-dihydropyridin-2-one]
- pull-down from plant extract with photo-cross-linked compound beads, SDS-PAGE, L: CsToAcE1, binds to AtβGLU23
